Measured values: patent publication US20230085307A1, “PYRIDAZINONE COMPOUND AND HERBICIDE” (NISSAN CHEMICAL CORPORATION, priority 2019, published 2023)

Experiments:
[1] = system: lambsquarters; assay: Test Example 5: herbicidal effect by foliage application, plastic box (Table 20, symbol O); format: in vivo, lambsquarters (Chenopodium album); details: foliage application; for effect on lambsquarters (O): 320 g/ha, 3 weeks after application
Method in brief: (§1)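 Post-emergence foliar test in sterilized diluvial soil. Compound applied as water-diluted emulsion at a predetermined rate to 14-day-old plants; evaluation at three weeks.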

[2] = system: barnyard grass; assay: Test Example 3: herbicidal effect by foliage application, Wagner pot (Table 18, symbol H); format: in vivo, barnyard grass (Echinochloa crus-galli); details: for herbicidal effect on H (barnyard grass), rating 0-5: 320 g/ha
Method in brief: (§2)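 Plants were sown in alluvial soil held under 0.1–0.5 cm standing water and grown 14 days in a greenhouse at 25–30 °C. An emulsifiable formulation, water-diluted to the set dose, was then sprayed onto the foliage, and effects were scored three weeks later using previously defined criteria.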

[3] = system: blackgrass; assay: Test Example 5: herbicidal effect by foliage application, plastic box (Table 20, symbol J); format: in vivo, blackgrass (Alopecurus myosuroides); details: foliage application; for effect on blackgrass (J): 320 g/ha, 3 weeks after application
Method in brief: as §1

[4] = system: lambsquarters; assay: Test Example 4: herbicidal effect by soil treatment (Table 19, symbol O); format: in vivo, lambsquarters (Chenopodium album); details: for herbicidal effect rating, O: lambsquarters: 320 g/ha
Method in brief: (§3)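 Emulsion of test compound, water-diluted to predetermined amount, sprayed on soil after sowing (seed depth ~1.5 cm, sterilized diluvial soil). Greenhouse, 25–30° C. Effect graded at three weeks post-spray.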

[5] = system: oval-leafed pondweed; assay: Test Example 1: herbicidal activity, application before weed generation under submerged conditions (Table 16, symbol C); format: in vivo, oval-leafed pondweed (Monochoria vaginalis); details: for Herbicidal effect on C: oval-leafed pondweed (grade 0-5): 320 g/ha applied herbicide
Method in brief: (§4)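 Emulsion formulation, water-diluted to set dose, was put onto the flooded surface (4 cm depth, alluvial soil) the same day weeds were sown and 2.5-leaf rice transplanted. After 3 weeks at 25-30 °C under glass, each species was rated 0 (≤5% kill) to 5 (≥90% kill).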

[6] = system: velvetleaf; assay: Test Example 4: herbicidal effect by soil treatment (Table 19, symbol M); format: in vivo, velvetleaf (Abutilon theophrasti); details: for herbicidal effect rating, M: velvetleaf: 320 g/ha
Method in brief: as §3

[7] = system: barnyard grass; assay: Test Example 5: herbicidal effect by foliage application, plastic box (Table 20, symbol H); format: in vivo, barnyard grass (Echinochloa crus-galli); details: foliage application; for effect on barnyard grass (H): 320 g/ha, 3 weeks after application
Method in brief: as §1

[8] = system: Japanese bulrush; assay: Test Example 1: herbicidal activity, application before weed generation under submerged conditions (Table 16, symbol B); format: in vivo, Japanese bulrush (Schoenoplectus juncoides); details: for Herbicidal effect on B: Japanese bulrush (grade 0-5): 320 g/ha applied herbicide
Method in brief: as §4

[9] = system: windgrass; assay: Test Example 4: herbicidal effect by soil treatment (Table 19, symbol L); format: in vivo, windgrass (Apera spica-venti); details: for herbicidal effect rating, L: windgrass: 320 g/ha
Method in brief: as §3

[10] = system: Chinese sprangletop; assay: Test Example 3: herbicidal effect by foliage application, Wagner pot (Table 18, symbol D); format: in vivo, chinese sprangletop (Leptochloa chinensis); details: for herbicidal effect on D (Chinese sprangletop), rating 0-5: 320 g/ha
Method in brief: as §2

[11] = system: persian speedwell; assay: Test Example 4: herbicidal effect by soil treatment (Table 19, symbol R); format: in vivo, Persian speedwell (Veronica persica); details: for herbicidal effect rating, R: persian speedwell: 320 g/ha
Method in brief: as §3

[12] = system: velvetleaf; assay: Test Example 5: herbicidal effect by foliage application, plastic box (Table 20, symbol M); format: in vivo, velvetleaf (Abutilon theophrasti); details: foliage application; for effect on velvetleaf (M): 320 g/ha, 3 weeks after application
Method in brief: as §1

[13] = system: Italian ryegrass; assay: Test Example 5: herbicidal effect by foliage application, plastic box (Table 20, symbol K); format: in vivo, Italian ryegrass (Lolium multiflorum); details: foliage application; for effect on Italian ryegrass (K): 320 g/ha, 3 weeks after application
Method in brief: as §1

[14] = system: barnyard grass; assay: Test Example 4: herbicidal effect by soil treatment (Table 19, symbol H); format: in vivo, barnyard grass (Echinochloa crus-galli); details: for herbicidal effect rating, H: barnyard grass: 320 g/ha
Method in brief: as §3

[15] = system: late watergrass; assay: Test Example 2: herbicidal activity, application during weed generation under submerged conditions (Table 17, symbol A); format: in vivo, late watergrass (Echinochloa oryzicola); details: application during weed generation, submerged conditions
Method in brief: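 Steps: fill Wagner pots with alluvial soil; add water to give 4 cm depth; sow the species mixed; grow under glass at 25–30° C.; at 1–2 leaves apply water-diluted emulsion formulation to the water surface at a fixed herbicide amount; score after 3 weeks.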

[16] = 246 g/ha, three weeks after application
[17] = amount of applied herbicide 246 g/ha

| Compound | effect on lambsquarters (O) [1] | herbicidal effect on H (barnyard grass), rating 0-5 [2] | effect on blackgrass (J) [3] | herbicidal effect rating, O: lambsquarters [4] | Herbicidal effect on C: oval-leafed pondweed (grade 0-5) [5] | herbicidal effect rating, M: velvetleaf [6] | effect on barnyard grass (H) [7] | Herbicidal effect on B: Japanese bulrush (grade 0-5) [8] | herbicidal effect rating, L: windgrass [9] | herbicidal effect on D (Chinese sprangletop), rating 0-5 [10] | herbicidal effect rating, R: persian speedwell [11] | effect on velvetleaf (M) [12] | effect on Italian ryegrass (K) [13] | herbicidal effect rating, H: barnyard grass [14] | herbicidal effect rating, A: late watergrass ([15]; AAH 320 g/ha) | also measured |
| --- | --- | --- | --- | --- | --- | --- | --- | --- | --- | --- | --- | --- | --- | --- | --- | --- |
| CCCCCOc1ccc(-c2sc3ccc(F)cc3c2-c2c(OC(=O)CCC)c(C)nn(C)c2=O)cc1 [2-038] | 3 (Herbicidal rate of 40% or more and less than 70%) | 4 (Herbicidal rate of 70% or more and less than 90%) | 0 (Herbicidal rate of 5% or less (almost no effect)) | 1 (Herbicidal rate of 5% or more and less than 20%) | 0 (Herbicidal rate of 5% or less (almost no effect)) | 0 (Herbicidal rate of 5% or less (almost no effect)) | 0 (Herbicidal rate of 5% or less (almost no effect)) | 0 (Herbicidal rate of 5% or less (almost no effect)) | 0 (Herbicidal rate of 5% or less (almost no effect)) | 4 (Herbicidal rate of 70% or more and less than 90%) | 4 (Herbicidal rate of 70% or more and less than 90%) | 4 (Herbicidal rate of 70% or more and less than 90%) | 0 (Herbicidal rate of 5% or less (almost no effect)) | 0 (Herbicidal rate of 5% or less (almost no effect)) | 2 (Herbicidal rate of 20% or more and less than 40%) |  |
| COCCOCOc1c(C)nn(C)c(=O)c1-c1c(-c2ccc(OCCC3OCCO3)cc2)sc2ccccc12 [1-224] | 4 (Herbicidal rate of 70% or more and less than 90%) | 5 (Herbicidal rate of 90% or more (almost completely withered)) | 0 (Herbicidal rate of 5% or less (almost no effect)) |  | 3 (Herbicidal rate of 40% or more and less than 70%) |  | 5 (Herbicidal rate of 90% or more (almost completely withered)) | 5 (Herbicidal rate of 90% or more (almost completely withered)) |  | 3 (Herbicidal rate of 40% or more and less than 70%) |  | 5 (Herbicidal rate of 90% or more (almost completely withered)) | 0 (Herbicidal rate of 5% or less (almost no effect)) |  | 3 (Herbicidal rate of 40% or more and less than 70%) | O: lambsquarters, herbicidal effect rating ([4]; AAH 320 g/ha): 3 (Herbicidal rate of 40% or more and less than 70%); M: velvetleaf, herbicidal effect rating ([6]; AAH 320 g/ha): 5 (Herbicidal rate of 90% or more (almost completely withered)); L: windgrass, herbicidal effect rating ([9]; AAH 320 g/ha): 0 (Herbicidal rate of 5% or less (almost no effect)); R: persian speedwell, herbicidal effect rating ([11]; AAH 320 g/ha): 3 (Herbicidal rate of 40% or more and less than 70%); H: barnyard grass, herbicidal effect rating ([14]; AAH 320 g/ha): 1 (Herbicidal rate of 5% or more and less than 20%) |
| CCCC(=O)Oc1c(C)nn(C)c(=O)c1-c1c(-c2ccc(OC)cc2)sc2ccc(F)cc12 [2-027] | 5 (Herbicidal rate of 90% or more (almost completely withered)) | 5 (Herbicidal rate of 90% or more (almost completely withered)) | 2 (Herbicidal rate of 20% or more and less than 40%) | 5 (Herbicidal rate of 90% or more (almost completely withered)) | 4 (Herbicidal rate of 70% or more and less than 90%) | 3 (Herbicidal rate of 40% or more and less than 70%) | 5 (Herbicidal rate of 90% or more (almost completely withered)) | 5 (Herbicidal rate of 90% or more (almost completely withered)) | 0 (Herbicidal rate of 5% or less (almost no effect)) | 4 (Herbicidal rate of 70% or more and less than 90%) | 5 (Herbicidal rate of 90% or more (almost completely withered)) | 5 (Herbicidal rate of 90% or more (almost completely withered)) | 5 (Herbicidal rate of 90% or more (almost completely withered)) | 4 (Herbicidal rate of 70% or more and less than 90%) | 3 (Herbicidal rate of 40% or more and less than 70%) |  |
| CCCC(=O)Oc1c(C)nn(C)c(=O)c1-c1c(-c2ccc(COC)cc2)sc2ccc(F)cc12 [2-023] | 4 (Herbicidal rate of 70% or more and less than 90%) | 5 (Herbicidal rate of 90% or more (almost completely withered)) | 4 (Herbicidal rate of 70% or more and less than 90%) | 5 (Herbicidal rate of 90% or more (almost completely withered)) | 0 (Herbicidal rate of 5% or less (almost no effect)) | 2 (Herbicidal rate of 20% or more and less than 40%) | 5 (Herbicidal rate of 90% or more (almost completely withered)) | 0 (Herbicidal rate of 5% or less (almost no effect)) | 0 (Herbicidal rate of 5% or less (almost no effect)) | 4 (Herbicidal rate of 70% or more and less than 90%) | 5 (Herbicidal rate of 90% or more (almost completely withered)) | 5 (Herbicidal rate of 90% or more (almost completely withered)) | 4 (Herbicidal rate of 70% or more and less than 90%) | 4 (Herbicidal rate of 70% or more and less than 90%) | 3 (Herbicidal rate of 40% or more and less than 70%) |  |
| CCCC(=O)Oc1c(C)nn(C)c(=O)c1-c1c(-c2ccc(F)cc2OCC)oc2ccc(C)cc12 [9-010] |  |  |  |  |  |  |  |  |  |  |  |  |  |  |  | herbicidal effect on lambsquarters (O) [1, 16]: 3 (Herbicidal rate of 40% or more and less than 70%); Herbicidal effect on H (barnyard grass), foliage application [2, 17]: 4 (Herbicidal rate of 70% or more and less than 90%); herbicidal effect on blackgrass (J) [3, 16]: 0 (Herbicidal rate of 5% or less (almost no effect)); O: lambsquarters, herbicidal effect grade [4, 17]: 0 (Herbicidal rate of 5% or less (almost no effect)); Herbicidal effect, C: oval-leafed pondweed [5, 17]: 3 (Herbicidal rate of 40% or more and less than 70%); M: velvetleaf, herbicidal effect grade [6, 17]: 0 (Herbicidal rate of 5% or less (almost no effect)); herbicidal effect on barnyard grass (H) [7, 16]: 3 (Herbicidal rate of 40% or more and less than 70%); Herbicidal effect, B: Japanese bulrush [8, 17]: 3 (Herbicidal rate of 40% or more and less than 70%); L: windgrass, herbicidal effect grade [9, 17]: 0 (Herbicidal rate of 5% or less (almost no effect)); Herbicidal effect on D (Chinese sprangletop), foliage application [10, 17]: 5 (Herbicidal rate of 90% or more (almost completely withered)); R: persian speedwell, herbicidal effect grade [11, 17]: 0 (Herbicidal rate of 5% or less (almost no effect)); herbicidal effect on velvetleaf (M) [12, 16]: 4 (Herbicidal rate of 70% or more and less than 90%); herbicidal effect on Italian ryegrass (K) [13, 16]: 0 (Herbicidal rate of 5% or less (almost no effect)); H: barnyard grass, herbicidal effect grade [14, 17]: 0 (Herbicidal rate of 5% or less (almost no effect)); herbicidal effect rating, A: late watergrass ([15]; AAH 246 g/ha): 0 (Herbicidal rate of 5% or less (almost no effect)) |
